Data as given in patent publication US20110200625A1, “PHARMACEUTICAL COMPOSITION” (priority 2010, published 2011).

Assay: presence of drug in the epidermis after the composition is applied to the skin
Type: in vivo
Conditions: after the composition containing the drug has been applied to the skin
Description: In the present invention, the Hsieh enhancer is used in a different way, that is, as a penetration-facilitator for delivery of drug to the dermal layer of the skin without significant, if any, systemic absorption of the drug into the blood stream of the user.

drug observed to be present in the epidermis, time after application: 72 h
SMILES: CO[C@H]1C[C@@H]2CC[C@@H](C)[C@@](O)(O2)C(=O)C(=O)N2CCCC[C@H]2C(=O)O[C@H]([C@H](C)C[C@@H]2CC[C@@H](O)[C@H](OC)C2)CC(=O)[C@H](C)/C=C(\C)[C@@H](O)[C@@H](OC)C(=O)[C@H](C)C[C@H](C)/C=C/C=C/C=C/1C [rapamycin]
